From patent publication US11807852B2, “Compositions and methods for reactivating latent immunodeficiency virus” (The J. David Gladstone Institutes, a testamentary trust …, priority 2014, dated 2023) come the findings set out here.

Where two headings read alike, the source gives them in different places.

The subject of data set [1] is CD4+ T cells from HIV-1-infected individuals. The data set is described as follows: T-cell activation markers CD69 and CD25, flow cytometry. The class given is cell-based, human. The conditions noted are these: at the indicated concentrations (up to 500 nM). The text has this: FIGS. 15 A-G depict the structural formulae for AZ505, AZ506, and AZ391, and the reactivation of latent HIV-1 with SMYD2 inhibitor X2 (AZ391) in CD4^+ T cells from HIV-1 infected individuals. (A) Structures of each compound are shown. (B) Intracellular HIV-1 mRNA levels in CD4^+ T cells, obtained from an infected individual (#1036) and treated ex vivo with AZ391, JQ1 or a combination of both, in indicated concentrations, presented as fold induction relative to DMSO control. Activation with αCD3/αCD28-Dynabeads was performed as control. (C) Flow cytometry of T-cell activation markers CD69 and CD25 in the same experiment. For each treatment group, CD69^+ (left) and CD25^+ (right). Shown as percentage of positive cells relative to αCD3/αCD28-treated cells (D) Cell viability as measured by CellTiter-Blue® Cell Viability assay (Promega) and Zombie Violet Fixable Viability kit (BioLegend) and presented as percentage of DMSO control treated cells. Data points indicate average of three technical replicates of donor #1036. (E-G) Same experiments as in b-d but performed with CD4^+ T cells obtained from three additional individuals (2013, 2185, 2511) with a single concentration of AZ391 (500 nM). In f and g, average of the three biological replicates (±SD) is show. For (F), for each treatment group, CD69^+ (left) and CD25^+ (right). […]
For orientation: A flow cytometer gives signals particle by particle.

The target in another data set is SMYD2 (Homo sapiens, UniProt Q9NRG4). The data set is described as follows: In vitro SMYD2 methylation assay of histone H4. In kind it is biochemical. Also on record: purchased Sigma-Aldrich. How it is done: In vitro Methylation assays were performed as described (Nishioka et al., 2002). For reactions, 2 gtg of histones (isolated from HEK293T cells), recombinant histone 4 (New England Biolabs), synthetic histone 4 as 1-21 and as 15-24 peptides (Cayman Chemical), or synthetic histone H4 as 1-21 with a K20A mutation (GenScript) were incubated with recombinant WT SMYD2 (Sigma-Aldrich) or SMYD2 Y240F (Active Motif) in a buffer containing 50 mM Tris-HCl, pH 9, 0.01% Tween 20, 2 mM DTT and 1.1 μCi of H3-labeled SAM (Perk-in Elmer) overnight at 30° C. Reaction mixtures were fractionated on 15% SDS-PAGE for proteins or on 10-20% Tris-Tricine gradient gels for peptides (BioRad). After Coomassie staining, gels were treated with Amplify. (GE Healthcare) for 30 min, dried and exposed to hyperfilm (GE Healthcare) overnight.

The test system of data set [2] is J-Lat A72 cell line (LTR-GFP). The conditions noted are these: A72 J-Lat cells; for activation of GFP expression / reactivation of the HIV-LTR: single agent. The method, then:
J-Lat (clones A2 and A72) cell lines were cultured as described in Jordan et al., EMBO J. 2003 Apr. 15:22(8):1868-77. Human αCD3/αCD28 beads (Life Technologies) were used at a concentration of 1 bead/cell ratio. JQ1 (Sigma-Aldrich) was used at a concentration of 0.1-10 μM. Ingenol 3,20-dibenzoate (Sigma-Aldrich) was used at concentrations of 5-200 nM, and SAHA (Sigma-Aldrich) was used at concentrations of 110 nM, 330 nM, or 1 μM.
HEK293T cells were obtained from the American Type Culture Collection. J-Lat (clones A2, A72, and 5A8) cell lines were described (Chan et al., 2013; Jordan et al., 2003). HEK293T cells were cultured in DMEM supplemented with 10% FBS, 1% L-glutamine and 1% penicillin-streptomycin (Life Technologies). J-Lat cells were cultured in RPMI supplemented with 10% FBS, 1% L-glutamine and 1% penicillin-streptomycin (Life Technologies). […] TNFα (Sigma-Aldrich) was used at 0.5-10 ng/ml. Human αCD3/αCD28 Dynabeads (Invitrogen) were used at a 1 bead/cell ratio. JQ1 (Cayman Chemical) was used at 0.1-10 μM. Ingenol 3,20-dibenzoate (Santa Cruz Biotechnology) was used at 5-200 nM, and SAHA (Merck) was used at 110 nM, 330 nM, or 1 μM. Phorbol 12-myristate 13-acetate (PMA) (Sigma) was used at 10 nM and ionomycin (Sigma) was used at a concentration of 500 nM. UNC926 (Tocris Bioscience) was used at a concentration of 10 nM-100 μM. AZ505. AZ506, and AZ391 were used at a concentration of 10 nM-10 μM.
ShRNA-expressing lentiviral vectors were purchased from Sigma-Aldrich. The pLKO.1 vector containing a scrambled shRNA was used as control. […] J-Lat 5A8, A72 and A2 cells were spininfected with virus (1 ng of p24 per 10^6 cells) containing shRNAs against KMTs or nontargeting control shRNAs and were selected with puronycin (2 μg/ml: Sigma). After 7 days of selection, cells were treated with the indicated concentration of drugs. The percentage of GFP^+ cells was determined after 18 h using a MACSQuant VYB FACS analyzer (Miltenyi Biotech GmbH). Cell viability was monitored by forward-and-side scatter analysis. Analysis was conducted on 3×10,000 live cells per condition. Data were analyzed using FlowJo 9.5 (Tree Star).

Data set [3] has as its system CD4+ T cells from HIV-1-infected individuals. Put plainly: Cell viability (CellTiter-Blue, Zombie Violet) of ex vivo treated CD4+ T cells. In kind it is cell-based, human. To be noted: at the indicated concentrations (up to 500 nM). The text has this: FIGS. 15 A-G depict the structural formulae for AZ505, AZ506, and AZ391, and the reactivation of latent HIV-1 with SMYD2 inhibitor X2 (AZ391) in CD4^+ T cells from HIV-1 infected individuals. (A) Structures of each compound are shown. (B) Intracellular HIV-1 mRNA levels in CD4^+ T cells, obtained from an infected individual (#1036) and treated ex vivo with AZ391, JQ1 or a combination of both, in indicated concentrations, presented as fold induction relative to DMSO control. Activation with αCD3/αCD28-Dynabeads was performed as control. (C) Flow cytometry of T-cell activation markers CD69 and CD25 in the same experiment. For each treatment group, CD69^+ (left) and CD25^+ (right). Shown as percentage of positive cells relative to αCD3/αCD28-treated cells (D) Cell viability as measured by CellTiter-Blue® Cell Viability assay (Promega) and Zombie Violet Fixable Viability kit (BioLegend) and presented as percentage of DMSO control treated cells. Data points indicate average of three technical replicates of donor #1036. (E-G) Same experiments as in b-d but performed with CD4^+ T cells obtained from three additional individuals (2013, 2185, 2511) with a single concentration of AZ391 (500 nM). In f and g, average of the three biological replicates (±SD) is show. For (F), for each treatment group, CD69^+ (left) and CD25^+ (right).

Sequence of SMYD2 (Q9NRG4 whole entry): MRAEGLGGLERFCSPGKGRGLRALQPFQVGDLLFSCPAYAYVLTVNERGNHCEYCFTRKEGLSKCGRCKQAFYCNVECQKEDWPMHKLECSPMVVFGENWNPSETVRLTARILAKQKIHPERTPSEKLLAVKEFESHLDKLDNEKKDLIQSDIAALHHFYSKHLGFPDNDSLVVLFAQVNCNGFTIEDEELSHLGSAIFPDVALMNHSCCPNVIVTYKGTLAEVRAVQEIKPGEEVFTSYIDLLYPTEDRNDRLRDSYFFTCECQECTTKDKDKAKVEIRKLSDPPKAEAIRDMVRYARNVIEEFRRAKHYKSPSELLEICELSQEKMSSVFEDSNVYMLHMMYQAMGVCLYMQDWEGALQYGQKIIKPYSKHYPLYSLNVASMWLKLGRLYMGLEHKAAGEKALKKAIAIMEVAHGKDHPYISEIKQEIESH

Turning to `N#Cc1cc(C(=O)NCCCN2CCCC2)cc(-c2ccccc2N2CCN(CCc3c[nH]c4ccccc34)CC2)c1` [AZ391], the “global T-cell activation (CD69, CD25)” value in data set [1] is “No increase in global T-cell activation”. The “methylation of recombinant human histone H4 by SMYD2” value at SMYD2 (full-length histone H4, 3H-SAM autoradiography) was “inhibited”. Also, the “methylation of synthetic histone H4 peptides by SMYD2” value at SMYD2 (peptides aa 1-21 and aa 15-24) was “suppressed”. Besides, the “reactivation of HIV-LTR, combination effect” value is on record as “more than additive effects” in data set [2] (co-treatment with JQ1), “less” in data set [2] (co-treatment with SAHA) and “practically no combination effect” in data set [2] (co-treatment with ingenol 3,20-dibenzoate). Also, the “GFP+ cells” value in data set [2] (high concentrations (5 and 10 μM)) is on record as “up to 30%”. Besides, the entries for the “activation of GFP expression / reactivation of the HIV-LTR” value in data set [2] and in data set [2] (listed as X2) were “activated GFP expression at high concentrations” and “the same effect was observed in A72 cells”, respectively. In data set [3], the cell viability result is given as “no impact on cell viability”.
